In patent US10759781B2, “Substituted guanidine derivatives” (UBE INDUSTRIES, LTD., priority 2015, dated 2020):
Structures can show the parent of a compound that is named as a salt.

Molecular target: T1, Human VAP-1 enzyme (Homo sapiens, UniProt Q16853)
T1 construct: purchased R&D Systems, Inc
T1 sequence (Q16853 1-763): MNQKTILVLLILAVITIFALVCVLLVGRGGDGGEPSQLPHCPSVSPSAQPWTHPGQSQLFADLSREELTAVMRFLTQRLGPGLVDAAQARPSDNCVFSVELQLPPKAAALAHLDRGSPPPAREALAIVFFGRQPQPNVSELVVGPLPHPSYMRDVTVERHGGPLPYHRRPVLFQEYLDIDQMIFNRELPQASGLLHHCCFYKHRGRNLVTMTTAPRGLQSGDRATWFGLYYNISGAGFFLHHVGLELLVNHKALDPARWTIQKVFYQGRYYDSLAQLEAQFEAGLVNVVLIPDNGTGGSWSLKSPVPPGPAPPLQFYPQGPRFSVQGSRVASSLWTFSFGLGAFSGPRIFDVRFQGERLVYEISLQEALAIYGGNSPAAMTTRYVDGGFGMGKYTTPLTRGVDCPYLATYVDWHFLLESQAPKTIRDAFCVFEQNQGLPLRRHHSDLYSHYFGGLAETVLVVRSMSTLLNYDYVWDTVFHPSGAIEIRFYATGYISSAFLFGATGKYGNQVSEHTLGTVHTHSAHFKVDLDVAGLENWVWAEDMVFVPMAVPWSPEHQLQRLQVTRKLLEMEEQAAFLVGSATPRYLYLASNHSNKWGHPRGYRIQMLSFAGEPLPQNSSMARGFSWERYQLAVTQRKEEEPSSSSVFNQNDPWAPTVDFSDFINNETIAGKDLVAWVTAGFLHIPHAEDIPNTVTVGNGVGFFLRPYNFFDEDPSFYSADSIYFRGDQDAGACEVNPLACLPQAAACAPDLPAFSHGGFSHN
Test: Human VAP-1 enzyme inhibition test
Format: biochemical
Conditions: 1 h; compound 30 nM; 14C-benzylamine 100 μM; read-out: inhibition ratio (human VAP-1 enzyme)
Procedure: Human VAP-1 enzyme inhibition test
This test was conducted by modifying the method of P. H. Yu et al. (Diabetologia 40 1243 (1997)). Human VAP-1 enzyme (R&D Systems, Inc.) was pre-incubated in a 96-well plate with the compound dissolved in dimethylsulfoxide at room temperature for 20 minutes. Next, in a solution to the final volume of 200 μL, the enzyme reaction solution was incubated with ^14C-benzylamine (final concentration 100 μM) at 37° C. for 1 hour. The reaction was terminated by the addition of 100 μL of 2 M citric acid solution to the reaction solution. The oxidative product was extracted using a toluene/ethyl acetate mixture and the radioactivity was measured with a liquid scintillation counter. The inhibition ratio of the compound was calculated using the following equation. Inhibition ratio={1−[VAP-1 enzyme activity after treatment with the compound]/[VAP-1 enzyme activity in the presence of dimethylsulfoxide alone without the compound]}×100

Row | inhibition at 0.03 µM | Structure (SMILES)
1 | ≥ 50% | N=C(N)NC(=O)OCc1cccc(-c2cnc(N3CC(=NOC4CN(CCF)C4)C3)nc2)c1F [Example 148, 2-Fluoro-3-{2-[3-({[1-(2-fluoroethyl)azetidin-3-yl]oxy}imino)azetidin-1-yl]pyrimidin-5-yl}benzyl carbamimidoylcarbamate]
2 | ≥ 50% | N=C(N)NC(=O)OCc1cccc(-c2cnc(N3CC(=NOC4CN(CC(F)(F)F)C4)C3)nc2)c1F [Example 140, 2-Fluoro-3-{2-[3-({[1-(2,2,2-trifluoroethyl)azetidin-3-yl]oxy}imino)azetidin-1-yl]pyrimidin-5-yl}benzyl carbamimidoylcarbamate]
3 | ≥ 50% | COCCN1CC(ON=C2CN(c3ncc(-c4cccc(COC(=O)NC(=N)N)c4F)cn3)C2)C1 [Example 147, 2-Fluoro-3-{2-[3-({[1-(2-methoxyethyl)azetidin-3-yl]oxy}imino)azetidin-1-yl]pyrimidin-5-yl}benzyl carbamimidoylcarbamate]
4 | ≥ 50% | N=C(N)NC(=O)OCc1cccc(-c2cnc(N3CCC(=NOCCN4CCOC4=O)CC3)nc2)c1F [Example 179, 2-Fluoro-3-[2-(4-{[2-(2-oxooxazolidin-3-yl)ethoxy]imino}piperidin-1-yl)pyrimidin-5-yl]benzyl carbamimidoylcarbamate]
5 | ≥ 50% | CCON=C1CN(c2ncc(-c3cccc(COC(=O)NC(=N)N)c3F)cn2)C1 [Example 188, 3-{2-[3-(Ethoxyimino)azetidin-1-yl]pyrimidin-5-yl}-2-fluorobenzyl carbamimidoylcarbamate 1/2 L-tartrate]
6 | ≥ 50% | N=C(N)NC(=O)OCc1cccc(-c2cnc(N3CCC(=NOCCN)CC3)nc2)c1F [Example 164, 3-(2-{4-[(2-Aminoethoxy)imino]piperidin-1-yl}pyrimidin-5-yl)-2-fluorobenzyl carbamimidoylcarbamate]
7 | ≥ 50% | N=C(N)NC(=O)OCc1cccc(-c2cnc(N3CCC(=NOCCN4CCOCC4=O)CC3)nc2)c1F [Example 180, 2-Fluoro-3-[2-(4-{[2-(3-oxomorpholino)ethoxy]imino}piperidin-1-yl)pyrimidin-5-yl]benzyl carbamimidoylcarbamate]
8 | ≥ 50% | CC(=O)N1CC(ON=C2CN(c3ncc(-c4cccc(COC(=O)NC(=N)N)c4F)cn3)C2)C1 [Example 138, 3-[2-(3-{[(1-Acetylazetidin-3-yl)oxy]imino}azetidin-1-yl)pyrimidin-5-yl]-2-fluorobenzyl carbamimidoylcarbamate]
9 | ≥ 50% | O=C(O)/C=C\C(=O)O.[2H]C([2H])([2H])ON=C1CN(c2ncc(-c3cccc(COC(=O)NC(=N)N)c3F)cc2F)C1 [Example 206, 2-Fluoro-3-(5-fluoro-6-{3-[(methoxy-d3)imino]azetidin-1-yl}pyridin-3-yl)benzyl carbamimidoylcarbamate maleate]
10 | ≥ 50% | N=C(N)NC(=O)OCc1cccc(-c2cnc(N3CC(=NOC4CN(Cc5ccccc5)C4)C3)nc2)c1F [Example 139, 3-[2-(3-{[(1-Benzylazetidin-3-yl)oxy]imino}azetidin-1-yl)pyrimidin-5-yl]-2-fluorobenzyl carbamimidoylcarbamate]
11 | ≥ 50% | CCOC(=O)CCCON=C1CCN(c2ncc(-c3cccc(COC(=O)NC(=N)N)c3F)cn2)CC1 [Example 152, Ethyl 4-[({1-[5-(3-{[(carbamimidoylcarbamoyl)oxy]methyl}-2-fluorophenyl)pyrimidin-2-yl]piperidin-4-ylidene}amino)oxy]butanoate]

The remaining lines, values behind:

Row | Structure (SMILES) | inhibition at 0.03 µM
12 | N=C(N)NC(=O)OCc1cccc(-c2cnc(N3CC(=NOCCN4CC(F)C4)C3)nc2)c1F [Example 128, 2-Fluoro-3-[2-(3-{[2-(3-fluoroazetidin-1-yl)ethoxy]imino}azetidin-1-yl)pyrimidin-5-yl]benzyl carbamimidoylcarbamate] | ≥ 50%
13 | N=C(N)NC(=O)OCc1cccc(-c2cnc(N3CC(=NOCCCF)C3)nc2)c1F [Example 8, 2-Fluoro-3-(2-{3-[(3-fluoropropoxy)imino]azetidin-1-yl}pyrimidin-5-yl)benzyl carbamimidoylcarbamate] | ≥ 50%
14 | N=C(N)NC(=O)OCc1cccc(-c2cnc(N3CC(=NOCCC(N)=O)C3)nc2)c1F [Example 112, 3-(2-{3-[(3-Amino-3-oxopropoxy)imino]azetidin-1-yl}pyrimidin-5-yl)-2-fluorobenzyl carbamimidoylcarbamate] | ≥ 50%
15 | N=C(N)NC(=O)OCc1cccc(-c2cnc(N3CC(=NOCCN4CCOCC4)C3)nc2)c1F [Example 125, 2-Fluoro-3-(2-{3-[(2-morpholinoethoxy)imino]azetidin-1-yl}pyrimidin-5-yl)benzyl carbamimidoylcarbamate] | ≥ 50%
16 | CN(C)CCON=C1CN(c2ncc(-c3cccc(COC(=O)NC(=N)N)c3F)cn2)C1 [Example 117, 3-[2-(3-{[2-(Dimethylamino)ethoxy]imino}azetidin-1-yl)pyrimidin-5-yl]-2-fluorobenzyl carbamimidoylcarbamate] | ≥ 50%
17 | CN(CCON=C1CN(c2ncc(-c3cccc(COC(=O)NC(=N)N)c3F)cn2)C1)Cc1ccccc1 [Example 118, 3-{2-[3-({2-[Benzyl(methyl)amino]ethoxy}imino)azetidin-1-yl]pyrimidin-5-yl}-2-fluorobenzyl carbamimidoylcarbamate] | ≥ 50%
18 | N=C(N)NC(=O)OCc1cccc(-c2cnc(N3CC(=NOCC(F)CO)C3)c(F)c2)c1F (stereo not drawn) [Example 103, 2-Fluoro-3-(5-fluoro-6-{3-[(2-fluoro-3-hydroxypropoxy)imino]azetidin-1-yl}pyridin-3-yl)benzyl carbamimidoylcarbamate] | ≥ 50%
19 | CNCCON=C1CCN(c2ncc(-c3cccc(COC(=O)NC(=N)N)c3F)cn2)CC1 [Example 162, 2-Fluoro-3-[2-(4-{[2-(methylamino)ethoxy]imino}piperidin-1-yl)pyrimidin-5-yl]benzyl carbamimidoylcarbamate dihydrochloride] | ≥ 50%
20 | N=C(N)NC(=O)OCc1cccc(-c2cnc(N3CC(=NOCCCCO)C3)nc2)c1F [Example 73, 2-Fluoro-3-(2-{3-[(4-hydroxybutoxy)imino]azetidin-1-yl}pyrimidin-5-yl)benzyl carbamimidoylcarbamate] | ≥ 50%
21 | CN1CC(ON=C2CN(c3ncc(-c4cccc(COC(=O)NC(=N)N)c4F)cn3)C2)C1 [Example 137, 2-Fluoro-3-[2-(3-{[(1-methylazetidin-3-yl)oxy]imino}azetidin-1-yl)pyrimidin-5-yl]benzyl carbamimidoylcarbamate] | ≥ 50%
22 | N=C(N)NC(=O)OCc1cccc(-c2cnc(N3CC(=NOCCCC(=O)O)C3)nc2)c1F [Example 115, 4-[({1-[5-(3-{[(Carbamimidoylcarbamoyl)oxy]methyl}-2-fluorophenyl)pyrimidin-2-yl]azetidin-3-ylidene}amino)oxy]butanoic acid] | ≥ 50%
23 | N=C(N)NC(=O)OCc1cccc(-c2cnc(N3CC(=NOCCN4CCCCC4)C3)nc2)c1F [Example 124, 2-Fluoro-3-[2-(3-{[2-(piperidin-1-yl)ethoxy]imino}azetidin-1-yl)pyrimidin-5-yl]benzyl carbamimidoylcarbamate] | ≥ 50%
24 | CNC(=O)CCCON=C1CN(c2ncc(-c3cccc(COC(=O)NC(=N)N)c3F)cn2)C1 [Example 116, 2-Fluoro-3-[2-(3-{[4-(methylamino)-4-oxobutoxy]imino}azetidin-1-yl)pyrimidin-5-yl]benzyl carbamimidoylcarbamate] | ≥ 50%
25 | N=C(N)NC(=O)OCc1cccc(-c2cnc(N3CC(=NOCCN4CCC4)C3)nc2)c1F [Example 126, 3-[2-(3-{[2-(Azetidin-1-yl)ethoxy]imino}azetidin-1-yl)pyrimidin-5-yl]-2-fluorobenzyl carbamimidoylcarbamate] | ≥ 50%
26 | CN(C)CC(CO)CON=C1CN(c2ncc(-c3cccc(COC(=O)NC(=N)N)c3F)cn2)C1 (stereo not drawn) [Example 122, 3-[2-(3-{[3-(Dimethylamino)-2-(hydroxymethyl)propoxy]imino}azetidin-1-yl)pyrimidin-5-yl]-2-fluorobenzyl carbamimidoylcarbamate] | ≥ 50%
27 | COCc1cc(-c2cccc(COC(=O)NC(=N)N)c2F)cnc1N1CC(=NOC)C1 [Example 49, 2-Fluoro-3-{6-[3-(methoxyimino)azetidin-1-yl]-5-(methoxymethyl)pyridin-3-yl}benzyl carbamimidoylcarbamate] | ≥ 50%
